Source: US10124012B2, “Method for treatment of hyperglycemia and hyperlipidemia” (priority 2016, dated 2018)

Legend:
[1] = system: high-fat diet-fed C57BL/6J mouse; assay: Histopathology of epididymal white adipose tissue (adipocyte hypertrophy); assay type: in vivo, C57BL/6J mice; settings: mean area of epididymal adipocyte, HFD-fed mice
Experimental: Animal studies were performed and approved under the guidelines of the Institutional Animal Care and Use Committee in Taiwan (12 Mar. 2015). The 4-week old male C57BL/6J mice (total amount n=63) were obtained from the National Laboratory Animal Center (Taipei, Taiwan). After acclimatization for one week, all of the mice were randomly assigned into a control (CON) group and a high-fat diet (HFD) group. For the following 12 weeks, the CON group (n=9) received a control diet or a low-fat diet (Diet 12450B, Research Diets, Inc., New Brunswick, N.J., USA), while the HFD group (n=54) received a high-fat diet (Diet 12451, Research Diets, New Brunswick, N.J., USA). The low-fat diet was composed of protein 20%, carbohydrate 70% and fat 10%, whereas the high-fat diet was composed of protein 20%, carbohydrate 35%, and fat 45% (of total energy, % kcal). After HFD feeding for 8 weeks, the HFD group was randomly subdivided into six groups (n=9 per group) receiving different treatments and fed on HFD. […] The HF+AnK1, HF+AnK2, and HF+AnK3 groups are collectively termed AnK-treated HFD groups in the following examples. The CON mice were administered vehicle. All treatments were administered via oral gavage once daily. After administration for 4 weeks, all mice were fasted 12 hours, and blood was collected from the retro-orbital sinus under ether anesthesia. At the end of the experiment, the mice were sacrificed via carbon dioxide inhalation. Liver, adipose tissue, and skeletal muscle were collected and immediately stored at −80° C. for target gene analysis.
Parts of visceral adipose and liver specimens were fixed with formalin (200 g/kg) neutral buffered solution and embedded in paraffin. A series of 8 μm-thick sections was cut and stained with hematoxylin and eosin. For microscopic examination, a microscope (Olympus BX51, Olympus, Tokyo, Japan) was used and the images were photographed.
Adipocyte hypertrophy, the pathological enlargement of adipocytes, is often found in subjects with type 2 diabetes and hyperlipidemia. To verify the therapeutic effect of AnK on adipocyte hypertrophy, morphology of the epididymal white adipose tissue from mice of the HF group and the AnK-treated HFD groups was examined. Micrographs (magnification 200X) of the EWAT sections for each group were shown in FIG. 4 and analyzed to determine the mean area of an epididymal adipocyte.

membrane GLUT4 = assay: Membrane GLUT4 expression in C2C12 cells (Western blotting); assay type: cell-based; settings: AnK 1, 5, 10 and 25 μg/mL 30 min, insulin 100 nM 25 min, vs CON group
Experimental: (§1) For the in vitro assay, C2C12 skeletal myoblasts (ATCC CRL-1772) were cultured at 37° C. in Dulbecco's modified Eagle's medium (DMEM; Gibco BRL) supplemented with 10% fetal bovine serum (FBS; Hyclone) and 100 U/ml penicillin and 100 μg/ml streptomycin (Gibco BRL), and split 1:4 using 0.05% trypsin at 80% confluency. Myoblasts were diluted and placed in a 9 cm dish. Cells were cultured to achieve 80-90% confluency and refreshed with […] (2% FBS/DMEM) every 24 hours for 5-7 days. The term “confluency” refers to the proportion of the surface of a culture dish that is covered by adherent cells growing in the dish. 100% confluency refers to complete coverage of the surface by the cells.
(§2) Differentiated C2C12 cells were serum-starved in DMEM/BSA at 37° C. for 2 hours prior to incubation with AnK (at 1, 5, 10, and 25 μg/mL) or vehicle (0.2% dimethyl sulfoxide (DMSO) in saline) for 30 min or with 100 nM insulin for 25 min.
The C2C12 cells of the other group were homogenized in a homogenization buffer having a pH value of about 7.4 and containing 250 mM sucrose, 50 mM Tris, and 0.2 mM edetic acid (EDTA). […]
(§3) Protein concentrations were determined via BCA assay (Pierce). […]
(§4) SDS polyacrylamide gel electrophoresis (SDS-PAGE) and Western blotting. Proteins were detected with antibodies specific for GLUT4, Akt, phospho-Akt (Ser^473), AMPK, and phospho-AMPK (Thr^172).

[2] = system: phospho-Akt (Ser^473)/total-Akt; assay: Akt phosphorylation in C2C12 cells (Western blotting); assay type: cell-based; settings: AnK 1, 5, 10 and 25 μg/mL 30 min, insulin 100 nM 25 min, vs CON group
Experimental: as §1, §2
(§5) The abovementioned C2C12 cells were then washed three times with phosphate buffered saline (PBS) and divided into two groups. […]
as §3, §4

[3] = system: phospho-AMPK (Thr^172)/total-AMPK; assay: AMPK phosphorylation in C2C12 cells (Western blotting); assay type: cell-based; settings: AnK 1, 5, 10 and 25 μg/mL 30 min, insulin 100 nM 25 min, vs CON group
Experimental: as §1, §2, §5, §3, §4

human neutrophils = settings: concentration-dependent 1˜25 mM; induced by fMLP and TPA in human neutrophils; cited from earlier work

Compound CN(C)C(=N)N=C(N)N [Metf, metformin, reference compound] has an Adipocyte size ([1]; HF + Metf: metformin 300 mg/kg/day oral gavage 4 weeks) of 5873.7 ± 345.1 μm^2.
With C=C(CC[C@@H](C)[C@H]1CC[C@H]2C3=C(C(=O)C[C@]12C)[C@@]1(C)CC[C@@H](O)[C@](C)(O)[C@@H]1C[C@@H]3O)C(C)C(=O)O (stereo partly drawn) [AnK, 3α,4β,7β-trihydroxy-4α-methylergosta-8,24(28)-dien-11-on-25S-26-oic acid] the “protein expression of membrane GLUT4” value (membrane GLUT4) was “enhanced”, the “expression ratio of phospho-Akt (p-Akt) to total-Akt (t-Akt)” value [2] was “higher” and the “expression ratio of phospho-AMPK (p-AMPK) to total-AMPK (t-AMPK)” value [3] was “higher”. It also gave an Adipocyte size ([1]; HF + AnK1: AnK 10 mg/kg/day oral gavage 4 weeks) of 6548.6 ± 214.7 μm^2, an Adipocyte size ([1]; HF + AnK2: AnK 20 mg/kg/day oral gavage 4 weeks) of 6483.8 ± 319.8 μm^2 and an Adipocyte size ([1]; HF + AnK3: AnK 40 mg/kg/day oral gavage 4 weeks) of 5670.8 ± 281.6 μm^2. For the same compound, the “anti-inflammatory effects (modulation of leukocyte activity, inhibition of reactive oxygen species production)” value (human neutrophils) was “anti-inflammatory effects”.
